Results published in ChEMBL document CHEMBL4229366, “Synthesis and evaluation of novel coumarin-oxime ethers as potential anti-tubercular agents: Their DNA cleavage ability and BSA interaction study” (Eur J Med Chem, 2018).
In brackets after ≈: the same amount, converted by molar mass. Activity calls are given as the source filed them. The calls are words filed in the database; no cut-off is given here.

tested on: not listed separately; experiment: Stability of the compound at pH 4.4 to 8.6 by electronic absorption spectroscopic analysis; format: physicochemical; settings: buffer

Compound	Stability
COc1ccc2oc(=O)cc(CO/N=C(\C)C(C)=O)c2c1	Stable
CC(=O)/C(C)=N/OCc1cc(=O)oc2c(C)c(C)ccc12	Stable
CC(=O)/C(C)=N/OCc1cc(=O)oc2ccc(C)cc12	Stable

biological target: T1, Albumin (Bos taurus, UniProt P02769); experiment: Binding affinity to bovine serum albumin assessed as association constant in phosphate buffer of pH 7.4 by fluorescence spectroscopic analysis; format: ADME; settings: cattle, isolated protein
T1 sequence (P02769 whole entry): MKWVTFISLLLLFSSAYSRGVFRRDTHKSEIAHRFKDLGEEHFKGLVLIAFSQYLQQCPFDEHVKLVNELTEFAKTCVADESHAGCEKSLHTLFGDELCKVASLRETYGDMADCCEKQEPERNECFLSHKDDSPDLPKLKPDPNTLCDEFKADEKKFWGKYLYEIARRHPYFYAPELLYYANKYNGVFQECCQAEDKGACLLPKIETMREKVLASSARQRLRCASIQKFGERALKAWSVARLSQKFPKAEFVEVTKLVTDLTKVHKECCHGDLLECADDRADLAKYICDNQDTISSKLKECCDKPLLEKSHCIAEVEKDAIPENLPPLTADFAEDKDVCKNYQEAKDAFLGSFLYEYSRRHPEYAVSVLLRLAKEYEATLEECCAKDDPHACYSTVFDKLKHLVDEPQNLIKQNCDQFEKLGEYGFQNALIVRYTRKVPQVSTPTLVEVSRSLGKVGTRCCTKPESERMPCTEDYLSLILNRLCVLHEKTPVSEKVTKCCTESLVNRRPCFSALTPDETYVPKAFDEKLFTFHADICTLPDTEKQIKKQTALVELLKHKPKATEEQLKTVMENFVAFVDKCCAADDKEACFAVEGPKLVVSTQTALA

Compound	Ka [×10⁴ L/mol]
CC(=O)/C(C)=N/OCc1cc(=O)oc2cc(C)cc(C)c12	1.37

biological target: T1, Albumin; experiment: Binding affinity to bovine serum albumin assessed as Stern-Volmer quenching constant in phosphate buffer of pH 7.4 by fluorescence spectroscopic analysis; format: ADME; settings: cattle, isolated protein

Compound	KSV [×10⁴ /mol]
CC(=O)/C(C)=N/OCc1cc(=O)oc2cc(C)cc(C)c12	6.19

tested on: not listed separately; experiment: Cytotoxicity against African green monkey Vero cells assessed as cell survival at 3.9 ug/ml after 72 hrs by MTS-PMS assay; format: cell-based; settings: chlorocebus sabaeus, read-out: Survival

Compound	viability at 72 h, 3.9 ug/ml [%]
CC(=O)/C(C)=N/OCc1cc(=O)oc2cc(C)ccc12	59
CC(=O)/C(C)=N/OCc1cc(=O)oc2ccc(C)cc12	72

tested on: not listed separately; experiment: Dissociation constant, pKa of the compound by potentiometric titration method; format: physicochemical; settings: not given

Compound	pKa
CC(=O)/C(C)=N/OCc1cc(=O)oc2cc(C)cc(C)c12	5.5
COc1ccc2oc(=O)cc(CO/N=C(\C)C(C)=O)c2c1	5.8
CC(=O)/C(C)=N/OCc1cc(=O)oc2cc(C)ccc12	5.5
NNC(=O)c1ccncc1 [ISONIAZID]	1.8 to 9.5
CC(=O)/C(C)=N/OCc1cc(=O)oc2cc(Cl)ccc12	5.4
CC(=O)/C(C)=N/OCc1cc(=O)oc2ccc(Cl)cc12	5.4
CC(=O)/C(C)=N/OCc1cc(=O)oc2c1ccc1ccccc12	5.6
CC(=O)/C(C)=N/OCc1cc(=O)oc2ccc(Br)cc12	5.4
CC(=O)/C(C)=N/OCc1cc(=O)oc2ccc3ccccc3c12	5.6
CC(=O)/C(C)=N/OCc1cc(=O)oc2c(C)c(C)ccc12	5.5
CC(=O)/C(C)=N/OCc1cc(=O)oc2ccc(C)cc12	5.7

tested on: not listed separately; experiment: Cytotoxicity against African green monkey Vero cells assessed as cell survival at 0.4 ug/ml after 72 hrs by MTS-PMS assay; format: cell-based; settings: chlorocebus sabaeus, read-out: Survival

Compound	viability at 72 h, 0.4 ug/ml [%]
CC(=O)/C(C)=N/OCc1cc(=O)oc2cc(C)cc(C)c12	89

tested on: Mycobacterium tuberculosis; experiment: Antitubercular activity against Mycobacterium tuberculosis H37Rv ATCC 27294 after 5 days by MABA method; format: functional; settings: H37Rv ATCC 27294, 120 h

Compound	MIC [µg/mL]
CC(=O)/C(C)=N/OCc1cc(=O)oc2cc(C)cc(C)c12	0.04 (≈ 0.139 µM)
COc1ccc2oc(=O)cc(CO/N=C(\C)C(C)=O)c2c1	0.19 (≈ 0.657 µM)
CC(=O)/C(C)=N/OCc1cc(=O)oc2cc(C)ccc12	0.39 (≈ 1.43 µM)
NNC(=O)c1ccncc1 [ISONIAZID]	0.02 (≈ 0.146 µM)
O=c1cc(CSC2=NCCS2)c2cc(Cl)ccc2o1	0.09 (≈ 0.289 µM)
CC(=O)/C(C)=N/OCc1cc(=O)oc2ccc3ccccc3c12	3.12 (≈ 10.1 µM)
CC(=O)/C(C)=N/OCc1cc(=O)oc2c(C)c(C)ccc12	0.09 (≈ 0.313 µM)
CC(=O)/C(C)=N/OCc1cc(=O)oc2ccc(C)cc12	0.39 (≈ 1.43 µM)

tested on: not listed separately; experiment: Cytotoxicity against African green monkey Vero cells assessed as cell survival at 0.9 ug/ml after 72 hrs by MTS-PMS assay; format: cell-based; settings: chlorocebus sabaeus, read-out: Survival

Compound	viability at 72 h, 0.9 ug/ml [%]
CC(=O)/C(C)=N/OCc1cc(=O)oc2c(C)c(C)ccc12	84

tested on: not listed separately; experiment: Cytotoxicity against African green monkey Vero cells assessed as cell survival at 31.2 ug/ml after 72 hrs by MTS-PMS assay; format: cell-based; settings: chlorocebus sabaeus, read-out: Survival

Compound	viability at 72 h, 31.2 ug/ml [%]
CC(=O)/C(C)=N/OCc1cc(=O)oc2ccc3ccccc3c12	67

tested on: not listed separately; experiment: Cytotoxicity against African green monkey Vero cells assessed as cell survival at 0.2 ug/ml after 72 hrs by MTS-PMS assay; format: cell-based; settings: chlorocebus sabaeus, read-out: Survival

Compound	viability at 72 h, 0.2 ug/ml [%]
NNC(=O)c1ccncc1 [ISONIAZID]	98

biological target: T1, Albumin; experiment: Binding affinity to bovine serum albumin assessed as quenching constant in phosphate buffer of pH 7.4 by fluorescence spectroscopic analysis; format: ADME; settings: cattle, isolated protein

Compound	Kq [×10¹³ /mol/s]
CC(=O)/C(C)=N/OCc1cc(=O)oc2cc(C)cc(C)c12	1.07

tested on: not listed separately; experiment: Stability of the compound at pH 4.4 to 8.2 by electronic absorption spectroscopic analysis; format: physicochemical; settings: buffer

Compound	Stability
CC(=O)/C(C)=N/OCc1cc(=O)oc2cc(C)cc(C)c12	Stable

biological target: T1, Albumin; experiment: Binding affinity to bovine serum albumin in pH 7.4 phosphate buffer at 27 degC assessed as association constant by UV-vis spectroscopic analysis; format: ADME; settings: cattle, isolated protein

Compound	Ka [×10⁴ L/mol]
CC(=O)/C(C)=N/OCc1cc(=O)oc2cc(C)cc(C)c12	1.24

biological target: T1, Albumin; experiment: Binding affinity to bovine serum albumin in pH 7.4 phosphate buffer at 27 degC by UV-vis spectroscopic analysis; format: ADME; settings: cattle, isolated protein

Compound	Activity
CC(=O)/C(C)=N/OCc1cc(=O)oc2cc(C)cc(C)c12	Dose-dependent effect

tested on: not listed separately; experiment: Cytotoxicity against African green monkey Vero cells assessed as cell survival at 1.9 ug/ml after 72 hrs by MTS-PMS assay; format: cell-based; settings: chlorocebus sabaeus, read-out: Survival

Compound	viability at 72 h, 1.9 ug/ml [%]
COc1ccc2oc(=O)cc(CO/N=C(\C)C(C)=O)c2c1	78

biological target: T1, Albumin; experiment: Binding affinity to bovine serum albumin in pH 7.4 phosphate buffer at 27 degC assessed as Gibbs free energy change by UV-vis spectroscopic analysis; format: ADME; settings: cattle, isolated protein

Compound	deltaG [kcal/mol]
CC(=O)/C(C)=N/OCc1cc(=O)oc2cc(C)cc(C)c12	-5.619

tested on: Mycobacterium tuberculosis; experiment: Antitubercular activity against Mycobacterium tuberculosis H37Rv ATCC 27294 at 6.25 ug/ml after 5 days by MABA method; format: functional; settings: H37Rv ATCC 27294, 120 h, read-out: GI

Compound	inhibition of growth at 6.25 µg/mL [%]
CC(=O)/C(C)=N/OCc1cc(=O)oc2cc(C)cc(C)c12	97
COc1ccc2oc(=O)cc(CO/N=C(\C)C(C)=O)c2c1	94
CC(=O)/C(C)=N/OCc1cc(=O)oc2cc(C)ccc12	91
NNC(=O)c1ccncc1 [ISONIAZID]	100
CC(=O)/C(C)=N/OCc1cc(=O)oc2cc(Cl)ccc12	21
CC(=O)/C(C)=N/OCc1cc(=O)oc2ccc(Cl)cc12	26
CC(=O)/C(C)=N/OCc1cc(=O)oc2c1ccc1ccccc12	87
CC(=O)/C(C)=N/OCc1cc(=O)oc2ccc(Br)cc12	81
CC(=O)/C(C)=N/OCc1cc(=O)oc2ccc3ccccc3c12	90
CC(=O)/C(C)=N/OCc1cc(=O)oc2c(C)c(C)ccc12	95
CC(=O)/C(C)=N/OCc1cc(=O)oc2ccc(C)cc12	92

tested on: Calf thymus DNA; experiment: Induction of calf thymus DNA cleavage at 5 uM by ethidium bromide based agarose gel electrophoresis method; format: nucleic-acid assay; settings: Bos taurus

Compound	Activity
CC(=O)/C(C)=N/OCc1cc(=O)oc2cc(C)cc(C)c12	Active
COc1ccc2oc(=O)cc(CO/N=C(\C)C(C)=O)c2c1	Active
CC(=O)/C(C)=N/OCc1cc(=O)oc2cc(C)ccc12	inactive
CC(=O)/C(C)=N/OCc1cc(=O)oc2cc(Cl)ccc12	inactive
CC(=O)/C(C)=N/OCc1cc(=O)oc2ccc(Cl)cc12	Active
CC(=O)/C(C)=N/OCc1cc(=O)oc2c1ccc1ccccc12	inactive
CC(=O)/C(C)=N/OCc1cc(=O)oc2ccc(Br)cc12	Active
CC(=O)/C(C)=N/OCc1cc(=O)oc2ccc3ccccc3c12	Active
CC(=O)/C(C)=N/OCc1cc(=O)oc2c(C)c(C)ccc12	Active
CC(=O)/C(C)=N/OCc1cc(=O)oc2ccc(C)cc12	Active
